Here are results for five molecules from PubChem BioAssay AID2060496 (Molecular Pharmacology Branch, DTP, NCI, 2025).

This test concerns 276233-004-R-J1-PDC complex spheroid viability. In words: Anticancer human tumor 276233-004-R-J1-PDC patient-derived colon adenocarcinoma cell line growth inhibition [GQUAD]. The following applies: for viability, T/C: stronger effect = lower value. The text has this:
DNA G-quadruplex Stabilizer Agents in Combinations in Complex Spheroids
A high-throughput screen of multi-cell type tumor spheroids was designed to identify active combinations of DNA G-quadruplex stabilizer agents and targeted small molecules. Complex spheroids include a stromal component modeled by human endothelial cells (HUVEC) and fibroblasts modeled by human mesenchymal stem cells (MSCs). The concentration ranges selected for each drug and investigational agent were based upon clinically achievable concentrations if the clinical Cmax of the agent was known.
Compounds. The drugs and investigational agents: pidnarulex (CX-5461; NSC782164), APTO-253 (NSC789042), BRACO-19 (NSC847499), peposertib (NSC802822), ceralasertib (NSC780249), elimusertib (NSC800525), camonsertib (NSC841442), AZD-1390 (NSC803789), olaparib (NSC753686), talazoparib (NSC767125), ART-558 (NSC835418), sotorasib (NSC818433), MRTX-1133 (NSC836407), SN-38 (NSC673596), topotecan (NSC609699), etoposide (NSC141540), doxorubicin (NSC123127), gemcitabine (NSC613327), 5-fluorouracil (NSC19893), paclitaxel (NSC125973), vemurafenib (NSC761431), panobinostat (NSC761190), R-306465 (JNJ-16241199; NSC773264), adavosertib (NSC754352), TP-3654 (NSC805149), carboplatin (NSC241240), KSQ-4279 (NSC840948), and staurosporine (NSC755774) were obtained from the National Cancer Institute (NCI) Developmental Therapeutics Program Chemical Repository (34). The FDA-approved anticancer drug set is available from the NCI Developmental Therapeutics Program. […] The stock solutions were prepared in dimethyl sulfoxide (DMSO, Sigma-Aldrich, St. Louis, MO, cat. D2650) at 800-fold the tested concentration and stored at -70 degrees C prior to their use. All drugs and investigational agents were tested over a range starting from a high concentration at or near the clinical Cmax and decreasing in half-log increments. If the clinical Cmax for an agent had not been determined, the highest concentration tested was 10 microM.
2.3 Cell Culture. All cells were maintained in an incubator at 37 degrees C and 5% CO2 with 95% humidity. The PDC lines were cultured according to standard operating procedures established by the NCI PDMR. All PDCs were thawed and cultured in Matrigel-coated flasks prepared with a working solution of 1X Ham's F-12 nutrient mix, without supplementation (Invitrogen, cat. 11765054), 100 U/mL penicillin-streptomycin (Invitrogen, cat. 15140122), and 2.5% Matrigel (Corning Inc., cat. 354248) for the first three passages. The 857933-349-R-J2-PDC line was cultured in 6C/Colon 1B media, which includes advanced DMEM/F-12 (Thermo Fisher Scientific, cat. 12634028), 10 mM HEPES (Thermo Fisher Scientific, cat. 15630080), 1X GlutaMAX supplement (Thermo Fisher Scientific, cat. 35050061), 0.1 mg/mL primocin (InvivoGen, cat. ant-pm-2), 10% defined fetal bovine serum, heat inactivated (HyClone Laboratories Inc., cat. SH30070.03HI), 50% L-WRN conditioned media (ATCC, cat. CRL-3276), 1.25 mM N-Acetyl-L-cysteine (Sigma-Aldrich, cat. A9165), 10 mM nicotinamide (Sigma-Aldrich, cat. N0636), 1X B-27 supplement (Thermo Fisher Scientific, cat. 17504044), 1X N-2 supplement (Thermo Fisher Scientific, cat. 17502048), 10 microM Y-27632 dihydrochloride (Tocris Bioscience, cat. 1254), and 50 ng/mL human EGF recombinant protein (Thermo Fisher Scientific, cat. PHG0311). The 485176-168-R4-J1-PDC line was cultured in Panc media, which includes all 6C/Colon 1B media components plus 100 ng/mL human FGF-10 (Thermo Fisher Scientific, cat. 100-26), 500 nM SB-431542 (Selleckchem, cat. S1067), and gastrin (Tocris, cat. 3006).
[…]

[1] abbreviates: curve of first compound, second compound 0.0316 µM.
Where [2] appears, read: curve of first compound, second compound 0.1 µM.
Where [3] appears, read: curve of first compound, second compound 0.316 µM.
[4] abbreviates: curve of first compound, second compound 1 µM.
Setting [5] is: curve of first compound, second compound 3.16 µM.
Setting [6] is: curve of first compound, second compound 10 µM.
Where [7] appears, read: second compound 0.0316 µM, first compound 0.0316 µM.
Where [8] appears, read: second compound 0.0316 µM, first compound 0.1 µM.
Setting [9] is: second compound 0.0316 µM, first compound 0.316 µM.
Setting [10] is: second compound 0.0316 µM, first compound 1 µM.
Where [11] appears, read: second compound 0.0316 µM, first compound 3.16 µM.
Where [12] appears, read: second compound 0.0316 µM, first compound 10 µM.
Where [13] appears, read: second compound 0.1 µM, first compound 0.0316 µM.
Setting [14] is: second compound 0.1 µM, first compound 0.1 µM.
Where [15] appears, read: second compound 0.1 µM, first compound 0.316 µM.
Setting [16] is: second compound 0.1 µM, first compound 1 µM.
Where [17] appears, read: second compound 0.1 µM, first compound 3.16 µM.
[18] abbreviates: second compound 0.1 µM, first compound 10 µM.
The mark [19] stands for this setting: second compound 0.316 µM, first compound 0.0316 µM.
Setting [20] is: second compound 0.316 µM, first compound 0.1 µM.
Where [21] appears, read: second compound 0.316 µM, first compound 0.316 µM.
[22] abbreviates: second compound 0.316 µM, first compound 1 µM.
[23] abbreviates: second compound 0.316 µM, first compound 3.16 µM.
The mark [24] stands for this setting: second compound 0.316 µM, first compound 10 µM.
[25] abbreviates: second compound 1 µM, first compound 0.0316 µM.
The mark [26] stands for this setting: second compound 1 µM, first compound 0.1 µM.
Setting [27] is: second compound 1 µM, first compound 0.316 µM.
The mark [28] stands for this setting: second compound 1 µM, first compound 1 µM.
Where [29] appears, read: second compound 1 µM, first compound 3.16 µM.
Where [30] appears, read: second compound 1 µM, first compound 10 µM.
Where [31] appears, read: second compound 3.16 µM, first compound 0.0316 µM.
The mark [32] stands for this setting: second compound 3.16 µM, first compound 0.1 µM.
Setting [33] is: second compound 3.16 µM, first compound 0.316 µM.
The mark [34] stands for this setting: second compound 3.16 µM, first compound 1 µM.
Where [35] appears, read: second compound 3.16 µM, first compound 3.16 µM.
The mark [36] stands for this setting: second compound 3.16 µM, first compound 10 µM.
[37] abbreviates: second compound 10 µM, first compound 0.0316 µM.
Where [38] appears, read: second compound 10 µM, first compound 0.1 µM.
Setting [39] is: second compound 10 µM, first compound 0.316 µM.
[40] abbreviates: second compound 10 µM, first compound 1 µM.
[41] abbreviates: second compound 10 µM, first compound 3.16 µM.
Where [42] appears, read: second compound 10 µM, first compound 10 µM.

The viability, T/C is the result in the treated group divided by that in the control group, in per cent. The term IC50 denotes the concentration at which inhibition is half-maximal.

Values joined by “and” are separate entries in the source; they are usually repeats but may differ in a detail not shown here. Equal values may be shown once. Where only a bound is given, the exact number is not on record here.
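Note: spheroids exposed to drugs for seven days.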

Take `CCCS(=O)(=O)Nc1ccc(F)c(C(=O)c2c[nH]c3ncc(-c4ccc(Cl)cc4)cc23)c1F`: the viability, T/C reads like this: (compound 0.0316 µM) 85% and 77.1% and 99.3%; (compound 0.1 µM) 91.3% and 96.2% and 84.7%; (compound 0.316 µM) 85.8% and 98.6% and 111%; (compound 1 µM) 97.5% and 83.7% and 96.3%; (compound 3.16 µM) 79.2% and 91% and 121%; (compound 10 µM) 56.8% and 59.4% and 76.4%. Also, the IC50 (curve of compound) was greater than 10 µM.

Turning to `C=CC(=O)N1CCN(c2nc(=O)n(-c3c(C)ccnc3C(C)C)c3nc(-c4c(O)cccc4F)c(F)cc23)C(C)C1` (configuration not stated), the viability, T/C (compound 0.0316 µM) was 107% and 92.8% and 91.6%; the viability, T/C (compound 0.1 µM) is 89.2% and 119% and 77.8%; the viability, T/C (compound 0.316 µM) is 102% and 80.8% and 89%; the viability, T/C (compound 1 µM) was 96.7% and 101% and 87.3%; the viability, T/C (compound 3.16 µM) was 98.4% and 92.5% and 85.8%; the viability, T/C (compound 10 µM) was 91.2% and 93.1% and 84.2%. For the setting “curve of compound”, the IC50 is greater than 10 µM.

Regarding `Cc1cnc(CNC(=O)c2c(=O)c3ccc(N4CCCN(C)CC4)nc3n3c2sc2ccccc23)cn1`, the viability, T/C was 85.5% [middle of 12 runs] (compound 1 µM), 74.2% [middle of 12 runs] (compound 3.16 µM) and 68.8% [middle of 12 runs] (compound 10 µM). The IC50 (compound alone, run of 02/20/2024) is greater than 10 µM.

For the molecule `CCCS(=O)(=O)Nc1ccc(F)c(C(=O)c2c[nH]c3ncc(-c4ccc(Cl)cc4)cc23)c1F` + Cc1cnc(CNC(=O)c2c(=O)c3ccc(N4CCCN(C)CC4)nc3n3c2sc2ccccc23)cn1, the IC50 is, setting by setting: under setting [1], greater than 10 µM; under setting [2], greater than 10 µM; under setting [3], greater than 10 µM; under setting [4], greater than 10 µM; under setting [5], greater than 10 µM; under setting [6], greater than 10 µM. Moreover, the viability, T/C is, setting by setting: under setting [7], 82.2%; under setting [8], 93.7%; under setting [9], 117%; under setting [10], 105%; under setting [11], 112%; under setting [12], 75.7%. Further, the viability, T/C under setting [13] is 92%; the viability, T/C under setting [14] was 87.3%; the viability, T/C under setting [15] was 96.4%; the viability, T/C under setting [16] was 105%; the viability, T/C under setting [17] was 99.5%; the viability, T/C under setting [18] was 82.9%. The viability, T/C runs as follows: under setting [19], 80.8%; under setting [20], 99.1%; under setting [21], 101%; under setting [22], 100%; under setting [23], 101%; under setting [24], 79.9%. In addition, the viability, T/C was 89.3% under setting [25]; 81.8% under setting [26]; 97.7% under setting [27]; 79.2% under setting [28]; 95% under setting [29]; 74.3% under setting [30]. Also, the viability, T/C was 94.2% under setting [31]; 76.4% under setting [32]; 81.9% under setting [33]; 80.2% under setting [34]; 71.4% under setting [35]; 62.2% under setting [36]. The viability, T/C is, setting by setting: under setting [37], 67.4%; under setting [38], 70%; under setting [39], 64.3%; under setting [40], 69.7%; under setting [41], 77.1%; under setting [42], 50.5%.

For the molecule `COc1ccc([C@@H](O)c2cc(-c3ncnc4cc(N5CCOCC5)ccc34)c(F)cc2Cl)nn1` + CN(C)c1ccc(Nc2c3ccc(NC(=O)CCN4CCCC4)cc3nc3cc(NC(=O)CCN4CCCC4)ccc23)cc1, the IC50 is greater than 10 µM under setting [1]; 5.54 µM under setting [2]; 0.612 µM under setting [3]; 3.46 µM under setting [4]; 0.127 µM under setting [5]; 0.134 µM under setting [6]. The viability, T/C was 88.8% under setting [7]; 94.6% under setting [8]; 87.7% under setting [9]; 74.5% under setting [10]; 61% under setting [11]; 54.2% under setting [12]. For the same molecule, the viability, T/C was 79.4% under setting [13]; 79.3% under setting [14]; 76.3% under setting [15]; 70.2% under setting [16]; 52.9% under setting [17]; 46.8% under setting [18]. Besides, the viability, T/C is 78% under setting [19]; 63.7% under setting [20]; 52% under setting [21]; 49.1% under setting [22]; 43.7% under setting [23]; 39.1% under setting [24]. For the same molecule, the viability, T/C was 56.5% under setting [25]; 49.5% under setting [26]; 62.5% under setting [27]; 48.8% under setting [28]; 52.4% under setting [29]; 38.2% under setting [30]. The viability, T/C under setting [31] was 47.4%; the viability, T/C under setting [32] was 54.2%; the viability, T/C under setting [33] was 47.6%; the viability, T/C under setting [34] was 42.2%; the viability, T/C under setting [35] was 39%; the viability, T/C under setting [36] was 40.1%. The viability, T/C runs as follows: under setting [37], 48.3%; under setting [38], 56.2%; under setting [39], 37.6%; under setting [40], 41.8%; under setting [41], 46.8%; under setting [42], 47.5%.
